Six compounds from BindingDB's records for PubMed 1353247 (University of Nebraska, 1992) can be followed below.

Several values for one entry are separate records, joined by “and”; a condition that tells them apart may be missing. Equal values may be shown once.

The target of assay [1] is T1, Alpha-2C adrenergic receptor (Homo sapiens, UniProt P18825).
T1 sequence (P18825 whole entry): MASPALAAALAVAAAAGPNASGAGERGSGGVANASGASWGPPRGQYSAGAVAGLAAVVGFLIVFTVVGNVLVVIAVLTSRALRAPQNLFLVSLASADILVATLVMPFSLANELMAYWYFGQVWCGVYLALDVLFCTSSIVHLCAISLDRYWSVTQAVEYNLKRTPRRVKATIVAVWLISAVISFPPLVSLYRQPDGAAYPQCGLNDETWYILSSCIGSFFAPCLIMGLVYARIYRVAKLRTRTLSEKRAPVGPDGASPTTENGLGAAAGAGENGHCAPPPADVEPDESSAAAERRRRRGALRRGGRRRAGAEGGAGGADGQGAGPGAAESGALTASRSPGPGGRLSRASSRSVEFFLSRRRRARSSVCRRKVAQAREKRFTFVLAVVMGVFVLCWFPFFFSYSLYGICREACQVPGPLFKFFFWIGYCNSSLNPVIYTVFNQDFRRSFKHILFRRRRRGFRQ

In assay [2] the target is T2, Alpha-2A adrenergic receptor (Homo sapiens, UniProt P08913).
T2 sequence (P08913 whole entry): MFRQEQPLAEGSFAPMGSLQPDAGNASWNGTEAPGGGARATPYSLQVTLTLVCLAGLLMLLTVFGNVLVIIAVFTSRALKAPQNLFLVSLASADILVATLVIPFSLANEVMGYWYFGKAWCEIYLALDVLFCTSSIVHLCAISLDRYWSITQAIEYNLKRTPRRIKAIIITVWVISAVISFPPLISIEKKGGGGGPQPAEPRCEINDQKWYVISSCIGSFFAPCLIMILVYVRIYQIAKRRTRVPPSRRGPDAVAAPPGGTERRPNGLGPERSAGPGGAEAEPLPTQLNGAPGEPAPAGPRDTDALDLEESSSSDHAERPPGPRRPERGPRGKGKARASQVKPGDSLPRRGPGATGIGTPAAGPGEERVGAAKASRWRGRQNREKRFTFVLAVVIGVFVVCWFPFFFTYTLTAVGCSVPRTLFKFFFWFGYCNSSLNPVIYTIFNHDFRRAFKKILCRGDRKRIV

The target in assay [3] is Alpha-2C adrenergic receptor.
The target in assay [4] is T3, Alpha-2B adrenergic receptor (Rattus norvegicus, UniProt P19328).
T3 sequence (P19328 whole entry): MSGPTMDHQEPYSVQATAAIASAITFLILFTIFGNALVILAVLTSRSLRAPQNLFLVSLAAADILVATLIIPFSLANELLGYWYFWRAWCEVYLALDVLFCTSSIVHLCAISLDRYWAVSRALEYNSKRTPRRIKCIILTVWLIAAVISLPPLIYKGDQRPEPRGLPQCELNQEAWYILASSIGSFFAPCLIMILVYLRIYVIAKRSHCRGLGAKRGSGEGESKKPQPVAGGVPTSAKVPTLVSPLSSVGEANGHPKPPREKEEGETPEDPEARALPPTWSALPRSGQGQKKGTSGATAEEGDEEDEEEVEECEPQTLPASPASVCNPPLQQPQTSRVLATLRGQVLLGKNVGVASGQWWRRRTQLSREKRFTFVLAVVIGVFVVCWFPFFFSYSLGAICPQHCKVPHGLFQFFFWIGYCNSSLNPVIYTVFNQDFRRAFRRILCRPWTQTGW

In the case of `COc1ccccc1N1CCN(CCC2C(=O)c3ccccc3C(C)(C)C2=O)CC1` (stereo not drawn) [NSC_122211], the Ki in assay [1] was determined as 3.82 nM.
As for `COC(=O)C1=CO[C@@H](C)[C@@H]2CN3CCc4c([nH]c5ccccc45)[C@H]3C[C@H]12` [AKUAMMIGINE], the Ki in assay [2] is 71 nM and 104 nM; in assay [3], 20 nM; in assay [4] it was 159 nM.
Regarding `COc1cccc(OC)c1OCCNCC1Oc2ccccc2OC1c1ccccc1` (stereo not drawn) [NSC_185453], the Ki was 0.91 nM and 1.27 nM in assay [2]; 0.4 nM in assay [1]; 0.75 nM in assay [3]; 7.89 nM in assay [4].
On to `O=C1NCN(c2ccccc2)C12CCN(CC1COc3ccccc3O1)CC2` (stereo not drawn) [8-(2,3-Dihydro-benzo[1,4]dioxin-2-ylmethyl)-1-phenyl-1,3,8-triaza-spiro[4.5]decan-4-one], for which the Ki in assay [2] is 5.5 nM and 8.3 nM; in assay [1], 0.13 nM; in assay [3], 0.26 nM; in assay [4], 0.29 nM.
As for `CN1C[C@H](Cn2ccnc2-c2ccccc2)C[C@@H]2c3cccc4[nH]c(Br)c(c34)C[C@H]21` [BAM-1303], the Ki in assay [2] was 0.39 nM and 1.34 nM; in assay [1] it was 0.39 nM; in assay [4] it was 6.94 nM.
For the compound `COC(=O)C1=COC(C)C2CN3CCc4c([nH]c5ccccc45)C3CC12` (stereo not drawn) [Ajmalicine], the inhibition constant (Ki) in assay [2] was 6.4 nM; in assay [3], 1.71 nM; in assay [4], 31.2 nM.

In general, Ki refers to the equilibrium dissociation constant of an inhibitor or competing ligand from its target.
